From ChEMBL document CHEMBL1681728, “An automated, polymer-assisted strategy for the preparation of urea and thiourea derivatives of 15-membered azalides as potential antimalarial chemotherapeutics” (Bioorg Med Chem, 2011)

Legend:
Format in all cases: functional, organism-based
Plasmodium falciparum [1] = assay: Antimalarial activity against chloroquine-sensitive Plasmodium falciparum D6 assessed as inhibition of [3H]hypoxanthine incorporation after 96 hrs by microtiter plate scintillation counting
Plasmodium falciparum [2] = assay: Antimalarial activity against chloroquine-,pyrimethamine-resistant Plasmodium falciparum W2 assessed as inhibition of [3H]hypoxanthine incorporation after 96 hrs by microtiter plate scintillation counting
Plasmodium falciparum [3] = assay: Antimalarial activity against multidrug-resistant Plasmodium falciparum TM91C235 assessed as inhibition of [3H]hypoxanthine incorporation after 96 hrs by microtiter plate scintillation counting

Compound | IC50 (Plasmodium falciparum [1]) | IC50 (Plasmodium falciparum [2]) | IC50 (Plasmodium falciparum [3])
CC[C@H]1OC(=O)[C@H](C)[C@@H](O[C@H]2C[C@@](C)(OC)[C@@H](O)[C@H](C)O2)[C@H](C)[C@@H](O[C@@H]2O[C@H](C)C[C@H](N(C)C)[C@H]2O)[C@](C)(O)C[C@@H](C)CN(CCCNC(=S)Nc2ccc(N(CC)CC)cc2)[C@H](C)[C@@H](O)[C@]1(C)O | 765 nM | 684 nM | 298 nM
CC[C@H]1OC(=O)[C@H](C)[C@@H](O[C@H]2C[C@@](C)(OC)[C@@H](O)[C@H](C)O2)[C@H](C)[C@@H](O[C@@H]2O[C@H](C)C[C@H](N(C)C)[C@H]2O)[C@](C)(O)C[C@@H](C)CN(CCCNC(=S)Nc2ccccc2F)[C@H](C)[C@@H](O)[C@]1(C)O | 987 nM | 400 nM | 122 nM
CC[C@H]1OC(=O)[C@H](C)[C@@H](O[C@H]2C[C@@](C)(OC)[C@@H](O)[C@H](C)O2)[C@H](C)[C@@H](O[C@@H]2O[C@H](C)C[C@H](N(C)C)[C@H]2O)[C@](C)(O)C[C@@H](C)CN(CCCNC(=O)NC(C)(C)CC(C)(C)C)[C@H](C)[C@@H](O)[C@]1(C)O | 269 nM | 78.4 nM | 183 nM
CC[C@H]1OC(=O)[C@H](C)[C@@H](O[C@H]2C[C@@](C)(OC)[C@@H](O)[C@H](C)O2)[C@H](C)[C@@H](O[C@@H]2O[C@H](C)C[C@H](N(C)C)[C@H]2O)[C@](C)(O)C[C@@H](C)CN(CCCNC(=S)NC(C)C)[C@H](C)[C@@H](O)[C@]1(C)O | 2610 nM | 1300 nM | 428 nM
CC[C@H]1OC(=O)[C@H](C)[C@@H](O[C@H]2C[C@@](C)(OC)[C@@H](O)[C@H](C)O2)[C@H](C)[C@@H](O[C@@H]2O[C@H](C)C[C@H](N(C)C)[C@H]2O)[C@](C)(O)C[C@@H](C)CN(CCCNC(=S)NCC(C)C)[C@H](C)[C@@H](O)[C@]1(C)O | 689 nM | 495 nM | 435 nM
CC[C@H]1OC(=O)[C@H](C)[C@@H](O[C@H]2C[C@@](C)(OC)[C@@H](O)[C@H](C)O2)[C@H](C)[C@@H](O[C@@H]2O[C@H](C)C[C@H](N(C)C)[C@H]2O)[C@](C)(O)C[C@@H](C)CN(CCCNC(=S)NC2CC3C=CC2C3)[C@H](C)[C@@H](O)[C@]1(C)O (stereo not given in full) | 302 nM | 173 nM | 183 nM
CC[C@H]1OC(=O)[C@H](C)[C@@H](O[C@H]2C[C@@](C)(OC)[C@@H](O)[C@H](C)O2)[C@H](C)[C@@H](O[C@@H]2O[C@H](C)C[C@H](N(C)C)[C@H]2O)[C@](C)(O)C[C@@H](C)CN(CCCNC(=O)Nc2ccc(F)c(F)c2)[C@H](C)[C@@H](O)[C@]1(C)O | 300 nM | 89.6 nM | 127 nM
CC[C@H]1OC(=O)[C@H](C)[C@@H](O[C@H]2C[C@@](C)(OC)[C@@H](O)[C@H](C)O2)[C@H](C)[C@@H](O[C@@H]2O[C@H](C)C[C@H](N(C)C)[C@H]2O)[C@](C)(O)C[C@@H](C)CN(CCCNC(=O)Nc2cccc3nsnc23)[C@H](C)[C@@H](O)[C@]1(C)O | 266 nM | 69.2 nM | 64.7 nM
CC[C@H]1OC(=O)[C@H](C)[C@@H](O[C@H]2C[C@@](C)(OC)[C@@H](O)[C@H](C)O2)[C@H](C)[C@@H](O[C@@H]2O[C@H](C)C[C@H](N(C)C)[C@H]2O)[C@](C)(O)C[C@@H](C)CN(CCCNC(=S)NC(=O)c2ccccc2)[C@H](C)[C@@H](O)[C@]1(C)O | 298 nM | 107 nM | 288 nM
CC[C@H]1OC(=O)[C@H](C)[C@@H](O[C@H]2C[C@@](C)(OC)[C@@H](O)[C@H](C)O2)[C@H](C)[C@@H](O[C@@H]2O[C@H](C)C[C@H](N(C)C)[C@H]2O)[C@](C)(O)C[C@@H](C)CN(CCCNC(=S)Nc2ccc(OC)cc2)[C@H](C)[C@@H](O)[C@]1(C)O | 480 nM | 77 nM | 209 nM
CC[C@H]1OC(=O)[C@H](C)[C@@H](O[C@H]2C[C@@](C)(OC)[C@@H](O)[C@H](C)O2)[C@H](C)[C@@H](O[C@@H]2O[C@H](C)C[C@H](N(C)C)[C@H]2O)[C@](C)(O)C[C@@H](C)CN(CCCNC(=S)Nc2ccc(Cl)c(Cl)c2)[C@H](C)[C@@H](O)[C@]1(C)O | 296 nM | 229 nM | 84.2 nM
CC[C@H]1OC(=O)[C@H](C)[C@@H](O[C@H]2C[C@@](C)(OC)[C@@H](O)[C@H](C)O2)[C@H](C)[C@@H](O[C@@H]2O[C@H](C)C[C@H](N(C)C)[C@H]2O)[C@](C)(O)C[C@@H](C)CN(CCCNC(=S)Nc2ccc(OCc3ccccc3)cc2)[C@H](C)[C@@H](O)[C@]1(C)O | 249 nM | 88.9 nM | 160 nM
CC[C@H]1OC(=O)[C@H](C)[C@@H](O[C@H]2C[C@@](C)(OC)[C@@H](O)[C@H](C)O2)[C@H](C)[C@@H](O[C@@H]2O[C@H](C)C[C@H](N(C)C)[C@H]2O)[C@](C)(O)C[C@@H](C)CN(CCCNC(=O)Nc2ccc(C)cc2C)[C@H](C)[C@@H](O)[C@]1(C)O | 470 nM | 179 nM | 232 nM
CC[C@H]1OC(=O)[C@H](C)[C@@H](O[C@H]2C[C@@](C)(OC)[C@@H](O)[C@H](C)O2)[C@H](C)[C@@H](O[C@@H]2O[C@H](C)C[C@H](N(C)C)[C@H]2O)[C@](C)(O)C[C@@H](C)CN(CCCNC(=O)NC2CCCCC2)[C@H](C)[C@@H](O)[C@]1(C)O | 1960 nM | 185 nM | 411 nM
CCc1ccc(NC(=O)NCCCN2C[C@H](C)C[C@@](C)(O)[C@H](O[C@@H]3O[C@H](C)C[C@H](N(C)C)[C@H]3O)[C@@H](C)[C@H](O[C@H]3C[C@@](C)(OC)[C@@H](O)[C@H](C)O3)[C@@H](C)C(=O)O[C@H](CC)[C@@](C)(O)[C@H](O)[C@H]2C)cc1 | 226 nM | 73.8 nM | 99.3 nM
CC[C@H]1OC(=O)[C@H](C)[C@@H](O[C@H]2C[C@@](C)(OC)[C@@H](O)[C@H](C)O2)[C@H](C)[C@@H](O[C@@H]2O[C@H](C)C[C@H](N(C)C)[C@H]2O)[C@](C)(O)C[C@@H](C)CN(CCCNC(=S)Nc2ccc(/N=N/c3ccccc3)cc2)[C@H](C)[C@@H](O)[C@]1(C)O | 107 nM | 47.9 nM | 96.3 nM
CC[C@H]1OC(=O)[C@H](C)[C@@H](O[C@H]2C[C@@](C)(OC)[C@@H](O)[C@H](C)O2)[C@H](C)[C@@H](O[C@@H]2O[C@H](C)C[C@H](N(C)C)[C@H]2O)[C@](C)(O)C[C@@H](C)CN(CCCNC(=S)Nc2ccc(C)cc2)[C@H](C)[C@@H](O)[C@]1(C)O | 330 nM | 71.3 nM | 164 nM
CC[C@H]1OC(=O)[C@H](C)[C@@H](O[C@H]2C[C@@](C)(OC)[C@@H](O)[C@H](C)O2)[C@H](C)[C@@H](O[C@@H]2O[C@H](C)C[C@H](N(C)C)[C@H]2O)[C@](C)(O)C[C@@H](C)CN(CCCNC(=O)Nc2ccc(OC)cc2)[C@H](C)[C@@H](O)[C@]1(C)O | 1970 nM | 256 nM | 442 nM
CCCCNC(=O)NCCCN1C[C@H](C)C[C@@](C)(O)[C@H](O[C@@H]2O[C@H](C)C[C@H](N(C)C)[C@H]2O)[C@@H](C)[C@H](O[C@H]2C[C@@](C)(OC)[C@@H](O)[C@H](C)O2)[C@@H](C)C(=O)O[C@H](CC)[C@@](C)(O)[C@H](O)[C@H]1C | 5800 nM | 370 nM | 820 nM
CC[C@H]1OC(=O)[C@H](C)[C@@H](O[C@H]2C[C@@](C)(OC)[C@@H](O)[C@H](C)O2)[C@H](C)[C@@H](O[C@@H]2O[C@H](C)C[C@H](N(C)C)[C@H]2O)[C@](C)(O)C[C@@H](C)CN(CCCNC(=S)NC2CC2)[C@H](C)[C@@H](O)[C@]1(C)O | 3720 nM | 679 nM | 972 nM
